Measured values: patent US9585954B2, “Mucosal immunization” (ARIZONA BOARD OF REGENTS FOR AND ON BEHALF OF ARIZONA STATE …, priority 2009, dated 2017)

System: antigen-relevant immune responses to NVCP VLP
Set-up: species or system experimental animals
Settings: in vivo

For CCNCc1nc2c(N)nc3ccccc3c2n1CC(C)(C)O [gardiquimod], the antigen-relevant immune responses was “much more robust immune responses”.
